In patent US7652143B2, “Cyclic ureas used as inhibitors of metalloproteases” (sanofi-aventis Deutschland GmbH, priority 2004, dated 2010):
Where a name gives a salt, the structure may show the parent alone. Read-outs that look alike come from different tables or passages of the source.

Experiments:
[1] = molecular target: T1, human ADAMTS-4 protease (Homo sapiens, UniProt O75173); test: Inhibition of ADAMTS-4 activity (rAgg1mut substrate, neo-epitope ELISA); format: biochemical; conditions: recombinant human ADAMTS-4, rAgg1mut substrate
T1 sequence (O75173 213-837): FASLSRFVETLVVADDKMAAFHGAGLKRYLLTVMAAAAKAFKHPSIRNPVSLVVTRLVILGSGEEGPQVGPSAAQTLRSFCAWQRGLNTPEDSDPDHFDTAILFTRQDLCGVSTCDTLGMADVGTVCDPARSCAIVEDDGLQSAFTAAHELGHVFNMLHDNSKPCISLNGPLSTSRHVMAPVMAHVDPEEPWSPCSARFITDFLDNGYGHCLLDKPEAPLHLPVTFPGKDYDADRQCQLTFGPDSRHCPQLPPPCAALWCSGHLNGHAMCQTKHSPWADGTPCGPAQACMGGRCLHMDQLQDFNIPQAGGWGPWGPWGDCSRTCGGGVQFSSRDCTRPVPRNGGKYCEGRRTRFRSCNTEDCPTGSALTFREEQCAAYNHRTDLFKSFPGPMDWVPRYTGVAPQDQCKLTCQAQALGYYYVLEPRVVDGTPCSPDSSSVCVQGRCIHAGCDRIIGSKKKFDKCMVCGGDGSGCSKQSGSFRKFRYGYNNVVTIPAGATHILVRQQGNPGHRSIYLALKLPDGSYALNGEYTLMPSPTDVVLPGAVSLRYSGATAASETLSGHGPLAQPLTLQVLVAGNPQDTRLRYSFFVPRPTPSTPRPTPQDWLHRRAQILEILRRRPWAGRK

[2] = molecular target: T2, MMP13 (Homo sapiens, UniProt P45452); test: Inhibition of MMP 13 activity (fluorimetric peptide substrate cleavage); format: biochemical; conditions: recombinant enzyme, APMA activation, pH 7.5 or pH 6.5, fluorimeter
T2 construct: purchased Biotrend, Roche, Boehringer Mannheim

[3] = molecular target: T3, TNFα-converting enzyme (TACE) (Homo sapiens, UniProt P78536); test: Inhibition of TACE activity (fluorimetric peptide substrate cleavage); format: biochemical
T3 construct: purchased R&D Systems
T3 sequence (P78536 215-824): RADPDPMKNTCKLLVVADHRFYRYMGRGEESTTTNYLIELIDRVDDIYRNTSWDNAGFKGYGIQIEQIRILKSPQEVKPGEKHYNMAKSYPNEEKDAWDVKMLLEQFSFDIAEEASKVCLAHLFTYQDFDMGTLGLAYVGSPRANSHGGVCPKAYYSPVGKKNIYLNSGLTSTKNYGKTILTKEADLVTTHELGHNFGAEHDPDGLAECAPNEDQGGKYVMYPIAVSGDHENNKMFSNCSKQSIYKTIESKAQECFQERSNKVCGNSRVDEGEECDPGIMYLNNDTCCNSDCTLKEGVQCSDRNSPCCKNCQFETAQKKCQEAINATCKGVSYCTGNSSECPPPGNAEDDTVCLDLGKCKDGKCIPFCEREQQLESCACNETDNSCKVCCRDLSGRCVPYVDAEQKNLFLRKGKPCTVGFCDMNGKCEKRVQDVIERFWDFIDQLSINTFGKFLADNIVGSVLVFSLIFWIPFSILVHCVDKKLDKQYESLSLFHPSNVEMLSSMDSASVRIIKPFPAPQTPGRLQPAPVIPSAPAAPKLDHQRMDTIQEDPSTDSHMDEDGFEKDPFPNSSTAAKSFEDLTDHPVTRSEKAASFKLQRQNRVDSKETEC
Method: The activity of the cyclic urea derivatives of the invention was tested in various in vitro assay systems for inhibitory activity on the proteases ADAMTS-4 and TNFα-converting enzyme (TACE) and on matrix-degrading metalloproteases (MMP13).
The activity in relation to TACE was measured using a commercially available, recombinantly prepared TACE protease (R&D Systems) and the substrate MCA-ProLeuAlaGlnAlaVal-Dpa-ArgSerSerSerArg-NH2 (Bachem).

[4] = system: primary bovine chondrocytes; test: Inhibition of proteoglycan liberation from IL1α-stimulated primary bovine chondrocyte cultures; format: cell-based; conditions: Bos taurus, alginate culture, 5 ng/ml human IL1α, 16 hours, dimethylmethylene blue dye test
Method: The proteoglycan degradation was determined using primary bovine chondrocytes which were isolated from the cartilage of the metacarpophalangeal joint of cattle about 6 months old and cultured in an alginate matrix at 37° C. and 5% CO2 for 3 weeks. Stimulation of ˜160 000 cells with 5 ng/ml human IL1α was followed after 16 hours by determination of the liberated amount of proteoglycan by means of a commercially available dimethylmethylene blue dye test system (Biocolor Ltd.).

[5] = recombinant TACE (R&D Systems), MCA peptide substrate, fluorimeter, read-out: Inhibition of TACE activity (IC50)

IC50 [1]	IC50 [2]	IC50 [3, 5]	IC50 [3]	Compound	IC50 [4]
2.1 µM	5 µM	2.47 µM	–	CC(C)C(C(=O)NO)N1CCN(Cc2ccc(OCc3ccccc3)cc2)C1=O (stereo not drawn) [Example 1, 2-(3-(4-Benzyloxybenzyl)-2-oxoimidazolidin-1-yl)-N-hydroxy-3-methylbutyramide]	> 50 µM
–	–	2 µM	–	CC(C)C(C(=O)NO)N1CCN(Cc2cccc(OCc3ccccc3)c2)C1=O (stereo not drawn) [Example 3, 2-(3-(3-Benzyloxybenzyl)-2-oxoimidazolidin-1-yl)-N-hydroxy-3-methylbutyramide]	–
1.33 µM	0.08 µM	5 µM	–	CC(C)C(C(=O)NO)N1CCN(Cc2ccc(Oc3ccccc3)cc2)C1=O (stereo not drawn) [Example 4, N-Hydroxy-3-methyl-2-(2-oxo-3-(4-phenoxybenzyl)imidazolidin-1-yl)-butyramide]	–
0.9 µM	4 µM	–	1.14 µM	CC(C)C(C(=O)NO)N1CCN(Cc2ccc(OCc3ccncc3)cc2)C1=O (stereo not drawn) [Example 10, N-Hydroxy-3-methyl-2-{2-oxo-3-(4-(pyridin-4-ylmethoxy)benzyl)imidazolidin-1-yl}-butyramide; compound with TFA]	> 50 µM
7.8 µM	5.4 µM	3 µM	–	CC(C)C(C(=O)NO)N1CCN(Cc2ccc(OCc3cccnc3)cc2)C1=O (stereo not drawn) [Example 11, N-Hydroxy-3-methyl-2-[2-oxo-3-(4-(pyridin-3-ylmethoxy)benzyl)imidazolidin-1-yl]-butyramide with TFA]	–
7 µM	–	8 µM	–	CC(C)C(C(=O)NO)N1CCN(Cc2ccc(OCc3ccccn3)cc2)C1=O (stereo not drawn) [Example 12, N-Hydroxy-3-methyl-2-{2-oxo-3-(4-(pyridin-2-ylmethoxy)benzyl)imidazolidin-1-yl}butyramide with TFA]	–
1.14 µM	–	0.01 µM	–	Cc1cc(COc2ccc(CN3CCN(C(C(=O)NO)C(C)C)C3=O)cc2)c2ccccc2n1 (stereo not drawn) [Example 14, N-Hydroxy-3-methyl-2-{3-(4-(2-methylquinolin-4-ylmethoxy)benzyl)-2-oxoimidazolidin-1-yl}butyramide with TFA]	12.9 µM

Further lines, the compound ahead of its results:

Compound	IC50 [1]	IC50 [2]	IC50 [3, 5]	IC50 [3]	IC50 [4]
2-(3-Biphenyl-4-ylmethyl-2-oxoimidazolidin-1-yl)-N-hydroxy-3-methylbutyramide [Example 6]	9.06 µM	–	–	–	–
CC(C)C(C(=O)NO)N1CCN(c2ccc(OCc3ccccc3)cc2)C1=O (stereo not drawn) [Example 2, 2-(3-(4-Benzyloxyphenyl)-2-oxoimidazolidin-1-yl)-N-hydroxy-3-methylbutyramide]	55 µM	–	–	–	–
CC(C)C(C(=O)NO)N1CCN(Cc2ccc(OCc3ccccc3)nc2)C1=O (stereo not drawn) [Example 5, 2-(3-(6-Benzyloxypyridin-3-ylmethyl)-2-oxoimidazolidin-1-yl)-N-hydroxy-3-methylbutyramide]	10 µM	–	–	–	–
COc1ccc(C2CN(Cc3ccccc3)C(=O)N2C(C(=O)NO)C(C)C)cc1 (stereo not drawn) [Example 7, 2-(3-Benzyl-5-(4-methoxyphenyl)-2-oxoimidazolidin-1-yl)-N-hydroxy-3-methylbutyramide]	–	0.01 µM	–	9 µM	–
CC(C)C(C(=O)NO)N1CCN(Cc2cccc(O)c2)C1=O (stereo not drawn) [Example 9, N-Hydroxy-2-(3-(3-hydroxybenzyl)-2-oxoimidazolidin-1-yl)-3-methylbutyramide]	72.4 µM	–	3.04 µM	–	–
CC#CCOc1ccc(CN2CCN(C(C(=O)NO)C(C)C)C2=O)cc1 (stereo not drawn) [Example 13, 2-(3-(4-But-2-ynyloxybenzyl)-2-oxoimidazolidin-1-yl)-N-hydroxy-3-methylbutyramide]	–	–	5 µM	–	–
COc1ccc(CC2CN(Cc3ccccc3)C(=O)N2C(C(=O)NO)C(C)C)cc1 (stereo not drawn) [Example 15, 2-(3-Benzyl-5-(4-methoxybenzyl)-2-oxoimidazolidin-1-yl)-N-hydroxy-3-methylbutyramide]	17 µM	0.4 µM	8 µM	–	–
COc1ccc(CC2CN(Cc3ccc(OCc4ccccc4)cc3)C(=O)N2C(C(=O)NO)C(C)C)cc1 (stereo not drawn) [Example 16, 2-(3-(4-Benzyloxybenzyl)-5-(4-methoxybenzyl)-2-oxoimidazolidin-1-yl)-N-hydroxy-3-methylbutyramide]	1.39 µM	0.42 µM	3.08 µM	–	25.5 µM
COc1ccc(CC2CN(C)C(=O)N2C(C(=O)NO)C(C)C)cc1 (stereo not drawn) [Example 17, N-Hydroxy-2-(5-(4-methoxybenzyl)-3-methyl-2-oxoimidazolidin-1-yl)-3-methylbutyramide]	–	3.17 µM	–	–	–
CC(C)C(C(=O)NO)N1C(=O)N(Cc2ccc(OCc3ccccc3)cc2)CC1Cc1ccc2c(c1)OCO2 (stereo not drawn) [Example 18, 2-(5-Benzo(1,3)dioxol-5-ylmethyl-3-(4-benzyloxybenzyl)-2-oxoimidazolidin-1-yl)-N-hydroxy-3-methylbutyramide]	3.16 µM	0.6 µM	1.9 µM	–	–
CC(C)C(C(=O)NO)N1C(=O)N(Cc2ccccc2)CC1Cc1ccc2c(c1)OCO2 (stereo not drawn) [Example 19, 2-(5-Benzo(1,3)dioxol-5-ylmethyl-3-benzyl-2-oxoimidazolidin-1-yl)-N-hydroxy-3-methylbutyramide]	–	0.34 µM	9.29 µM	–	–
COc1ccc(CC2CN(Cc3ccc(OCc4ccccc4)cc3)S(=O)(=O)N2C(C(=O)NO)C(C)C)cc1 (stereo not drawn) [Example 20, 2-(5-(4-Benzyloxybenzyl)-3-(4-methoxybenzyl)-1,1-dioxo-(1,2,5)thiadiazolidin-2-yl)-N-hydroxy-3-methylbutyramide]	–	3.58 µM	–	–	–
